From patent EP4273147A1, “SUBSTITUTED SPIROLACTAMS, SALTS THEREOF AND THEIR USE AS HERBICIDALLY ACTIVE SUBSTANCES” (Bayer Aktiengesellschaft, priority 2022, dated 2023)
Each block holds one compound with its values, some of them ahead of it.

Tests used:
AMARE [1] = test: Herbicidal pre-emergence action (Table A8); type: in vivo, Amaranthus retroflexus; conditions: application rate 1280 g/ha; visual grading after ca. 3 weeks vs untreated controls (100% = plants have died off, 0% = as control plants)
How it was run: (§1)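 Double sowing per pot (1 monocot + 1 dicot weed species), sandy loam substrate, seeds covered with soil.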

MATIN [2] = test: Herbicidal post-emergence action (Table B6); type: in vivo, Matricaria inodora; conditions: rated visually after about 3 weeks
How it was run: (§2)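 Visual rating of activity versus untreated plants about 3 weeks after treatment: 0% means no difference from controls, 100% means complete kill. Test weeds were raised from seed in sandy loam under controlled greenhouse conditions and sprayed at the one-leaf stage.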

TRZAS [3] = test: Post-emergence effects on crop plants (Table F2); type: in vivo, Triticum aestivum; conditions: application rate 320 g/ha, crop plant TRZAS
Source text: (§3) 2 to 3 weeks after sowing, the test plants were sprayed in the single-leaf stage.

GLXMA = test: Pre-emergence effects on crop plants (Table D4); type: in vivo, Glycine max; conditions: crop plant; application rate 320 g/ha; visual grading after ca. 3 weeks
VIOTR [4] = test: Herbicidal pre-emergence action, section C (Table C12); type: in vivo, Viola tricolor; conditions: visual grading after ca. 3 weeks
BRSNW [5] = test: Pre-emergence effects on crop plants (Table D5); type: in vivo, Brassica napus; conditions: crop plant; application rate 80 g/ha; visual grading after ca. 3 weeks
AMARE [6] = test: Herbicidal post-emergence action (Table B11); type: in vivo, Amaranthus retroflexus; conditions: application rate 1280 g/ha
Description: (§4) Seeds of mono- and dicotyledonous weed plants were placed in plastic pots in sandy loam soil (doubly sown with in each case one species of mono- or dicotyledonous weed plants per pot), covered with soil and cultivated in a greenhouse under controlled growth conditions. 2 to 3 weeks after sowing, the test plants were treated at the one-leaf stage. […] After the test plants had been kept in the greenhouse under optimum growth conditions for about 3 weeks, the activity of the preparations was rated visually in comparison to untreated controls. For example, 100% activity = the plants have died, 0% activity = like control plants.

STEME [7] = test: Herbicidal post-emergence action (Table B9); type: in vivo, Stellaria media; conditions: application rate 1280 g/ha
Description: as §4

ALOMY [8] = test: Herbicidal post-emergence action, section E (Table E2); type: in vivo, Alopecurus myosuroides; conditions: application rate 320 g/ha; assessed visually after ca. 3 weeks
Source text: as §3

VERPE [9] = test: Herbicidal post-emergence action, section E (Table E9); type: in vivo, Veronica persica; conditions: application rate 320 g/ha; assessed visually after ca. 3 weeks
Source text: as §3

SETVI [10] = test: Herbicidal pre-emergence action (Table A5); type: in vivo, Setaria viridis; conditions: application rate 320 g/ha; visual grading after ca. 3 weeks
How it was run: as §1

STEME [11] = test: Herbicidal pre-emergence action (Table A6); type: in vivo, Stellaria media; conditions: application rate 320 g/ha; visual grading after ca. 3 weeks
How it was run: as §1

LOLRI [12] = test: Herbicidal pre-emergence action (Table A3); type: in vivo, Lolium rigidum; conditions: application rate 320 g/ha; visual grading after ca. 3 weeks
How it was run: as §1

DIGSA [13] = test: Herbicidal pre-emergence action, section C (Table C5); type: in vivo, Digitaria sanguinalis; conditions: visual grading after ca. 3 weeks
ECHCG [14] = test: Herbicidal pre-emergence action (Table A2); type: in vivo, Echinochloa crus-galli; conditions: visual grading after ca. 3 weeks
How it was run: as §1

MATIN [15] = test: Herbicidal pre-emergence action (Table A4); type: in vivo, Matricaria inodora; conditions: visual grading after ca. 3 weeks
How it was run: as §1

ALOMY [16] = test: Herbicidal pre-emergence action, section C (Table C2); type: in vivo, Alopecurus myosuroides; conditions: application rate 80 g/ha; visual grading after ca. 3 weeks
POAAN [17] = test: Herbicidal post-emergence action (Table B7); type: in vivo, Poa annua; conditions: application rate 320 g/ha
How it was run: as §2

LOLRI [18] = test: Herbicidal pre-emergence action, section C (Table C7); type: in vivo, Lolium rigidum; conditions: application rate 320 g/ha; visual grading after ca. 3 weeks
ECHCG [19] = test: Herbicidal post-emergence action, section E (Table E5); type: in vivo, Echinochloa crus-galli; conditions: application rate 320 g/ha; assessed visually after ca. 3 weeks
Source text: as §3

BRSNW [20] = test: Post-emergence effects on crop plants (Table F5); type: in vivo, Brassica napus; conditions: application rate 320 g/ha, crop plant BRSNW
Source text: as §3

ECHCG [21] = test: Herbicidal pre-emergence action, section C (Table C6); type: in vivo, Echinochloa crus-galli; conditions: visual grading after ca. 3 weeks
Source text: (§5) Seeds of mono- and dicotyledonous weed plants and crop plants were sown, in plastic or organic planting pots, in sandy loam and covered with soil. The compounds according to the invention, formulated in the form of wettable powders (WP) or as emulsifiable concentrates (EC), were applied to the surface of the covering soil as aqueous suspension or emulsion, with the addition of 0.5% of an additive, at an application rate of 600 1 of water/ha (converted). Following treatment, the pots were placed in a greenhouse and kept under optimum growth conditions for the test plants.

TRZAS [22] = test: Pre-emergence effects on crop plants (Table D2); type: in vivo, Triticum aestivum; conditions: crop plant; application rate 80 g/ha; visual grading after ca. 3 weeks
ABUTH [23] = test: Herbicidal post-emergence action (Table B1); type: in vivo, Abutilon theophrasti; conditions: application rate 1280 g/ha; treated at one-leaf stage; rated visually after about 3 weeks vs untreated controls (100% = plants have died, 0% = like control plants)
How it was run: as §2

ORYZA [24] = test: Post-emergence effects on crop plants (Table F3); type: in vivo, Oryza sativa; conditions: application rate 320 g/ha, crop plant ORYZA
Source text: as §3

VIOTR [25] = test: Herbicidal post-emergence action, section E (Table E10); type: in vivo, Viola tricolor; conditions: application rate 320 g/ha; assessed visually after ca. 3 weeks
Source text: as §3

ZEAMX [26] = test: Pre-emergence effects on crop plants (Table D1); type: in vivo, Zea mays; conditions: crop plant; application rate 320 g/ha; visual grading after ca. 3 weeks
POAAN [27] = test: Herbicidal pre-emergence action (Table A7); type: in vivo, Poa annua; conditions: application rate 320 g/ha; visual grading after ca. 3 weeks
How it was run: as §1

ZEAMX [28] = test: Post-emergence effects on crop plants (Table F1); type: in vivo, Zea mays; conditions: crop plant ZEAMX
Source text: as §3

SETVI [29] = test: Herbicidal pre-emergence action, section C (Table C10); type: in vivo, Setaria viridis; conditions: application rate 320 g/ha; visual grading after ca. 3 weeks
VERPE [30] = test: Herbicidal pre-emergence action, section C (Table C11); type: in vivo, Veronica persica; conditions: visual grading after ca. 3 weeks
DIGSA [31] = test: Herbicidal pre-emergence action (Table A12); type: in vivo, Digitaria sanguinalis; conditions: application rate 320 g/ha; visual grading after ca. 3 weeks
How it was run: as §1

ALOMY [32] = test: Herbicidal pre-emergence action (Table A9); type: in vivo, Alopecurus myosuroides; conditions: application rate 1280 g/ha; visual grading after ca. 3 weeks
How it was run: as §1

VERPE [33] = test: Herbicidal pre-emergence action (Table A11); type: in vivo, Veronica persica; conditions: application rate 1280 g/ha; visual grading after ca. 3 weeks
How it was run: as §1

SETVI [34] = test: Herbicidal post-emergence action (Table B8); type: in vivo, Setaria viridis; conditions: application rate 1280 g/ha
How it was run: as §2

ORYZA [35] = test: Pre-emergence effects on crop plants (Table D3); conditions: crop plant; application rate 80 g/ha; visual grading after ca. 3 weeks
ABUTH [36] = test: Herbicidal pre-emergence action, section C (Table C1); type: in vivo, Abutilon theophrasti; conditions: application rate 320 g/ha; visual grading after ca. 3 weeks
POLCO = test: Herbicidal pre-emergence action, section C (Table C9); type: in vivo, Polygonum convolvulus; conditions: application rate 320 g/ha; visual grading after ca. 3 weeks
Source text: as §5

MATIN [37] = test: Herbicidal pre-emergence action, section C (Table C8); type: in vivo, Matricaria inodora; conditions: application rate 320 g/ha; visual grading after ca. 3 weeks
SETVI [38] = test: Herbicidal post-emergence action, section E (Table E8); type: in vivo, Setaria viridis; conditions: application rate 320 g/ha; assessed visually after ca. 3 weeks
Source text: as §3

KCHSC = test: Herbicidal pre-emergence action (Table A10); type: in vivo, Kochia scoparia; conditions: application rate 320 g/ha; visual grading after ca. 3 weeks
How it was run: as §1

ECHCG [39] = test: Herbicidal post-emergence action (Table B3); type: in vivo, Echinochloa crus-galli; conditions: application rate 1280 g/ha; rated visually after about 3 weeks
How it was run: as §2

pre-emergence activity against GLXMA (GLXMA): 0%
pre-emergence activity against BRSNW (BRSNW [5]): 10%
pre-emergence activity against TRZAS (TRZAS [22]): 20%
pre-emergence activity against ZEAMX (ZEAMX [26]): 10%
SMILES: O=C1N(Cc2c(F)ccc(F)c2F)CCCC12CCCN(Cc1c(F)ccc(F)c1F)C2=O (racemic) [I-013]
pre-emergence activity against AMARE (AMARE [1]): 90%
post-emergence activity against MATIN (MATIN [2]; application rate 320 g/ha): 90%
post-emergence activity against TRZAS (TRZAS [3]): 0%
pre-emergence activity against VIOTR (VIOTR [4]; application rate 320 g/ha): 80%
post-emergence activity against AMARE (AMARE [6]): 90%
post-emergence activity against STEME (STEME [7]): 90%
post-emergence activity against ALOMY (ALOMY [8]): 80%
post-emergence activity against VERPE (VERPE [9]): 80%
pre-emergence activity against SETVI (SETVI [10]): 100%
pre-emergence activity against STEME (STEME [11]): 100%
pre-emergence activity against LOLRI (LOLRI [12]): 100%
pre-emergence activity against DIGSA (DIGSA [13]; application rate 80 g/ha): 100%
pre-emergence activity against ECHCG (ECHCG [14]; application rate 1280 g/ha): 100%
pre-emergence activity against MATIN (MATIN [15]; application rate 1280 g/ha): 90%
pre-emergence activity against ALOMY (ALOMY [16]): 80%
post-emergence activity against POAAN (POAAN [17]): 90%
pre-emergence activity against LOLRI (LOLRI [18]): 90%
post-emergence activity against ECHCG (ECHCG [19]): 80%
post-emergence activity against BRSNW (BRSNW [20]): 0%
pre-emergence activity against ECHCG (ECHCG [21]; application rate 80 g/ha): 100%
post-emergence activity against ABUTH (ABUTH [23]): 90%
post-emergence activity against ORYZA (ORYZA [24]): 0%
post-emergence activity against VIOTR (VIOTR [25]): 90%
pre-emergence activity against POAAN (POAAN [27]): 100%
post-emergence activity against ZEAMX (ZEAMX [28]; application rate 320 g/ha): 10%
pre-emergence activity against SETVI (SETVI [29]): 90%
pre-emergence activity against VERPE (VERPE [30]; application rate 80 g/ha): 90%

pre-emergence activity against ORYZA (ORYZA [35]): 0%
pre-emergence activity against TRZAS (TRZAS [22]): 20%
pre-emergence activity against ZEAMX (ZEAMX [26]): 0%
SMILES: O=C1N(Cc2ccccc2)CCC12CCCN(Cc1cccc(F)c1F)C2=O (racemic) [I-028]
post-emergence activity against MATIN (MATIN [2]; application rate 1280 g/ha): 90%
pre-emergence activity against DIGSA (DIGSA [31]): 90%
post-emergence activity against TRZAS (TRZAS [3]): 0%
pre-emergence activity against VIOTR (VIOTR [4]; application rate 80 g/ha): 90%
pre-emergence activity against ALOMY (ALOMY [32]): 90%
pre-emergence activity against VERPE (VERPE [33]): 90%
post-emergence activity against SETVI (SETVI [34]): 90%
pre-emergence activity against SETVI (SETVI [10]): 100%
pre-emergence activity against STEME (STEME [11]): 90%
pre-emergence activity against LOLRI (LOLRI [12]): 100%
pre-emergence activity against DIGSA (DIGSA [13]; application rate 320 g/ha): 100%
pre-emergence activity against ECHCG (ECHCG [14]; application rate 320 g/ha): 100%
pre-emergence activity against MATIN (MATIN [15]; application rate 320 g/ha): 90%
pre-emergence activity against ABUTH (ABUTH [36]): 90%
pre-emergence activity against ALOMY (ALOMY [16]): 90%
pre-emergence activity against POLCO (POLCO): 90%
pre-emergence activity against MATIN (MATIN [37]): 80%
pre-emergence activity against LOLRI (LOLRI [18]): 100%
post-emergence activity against ECHCG (ECHCG [19]): 80%
post-emergence activity against SETVI (SETVI [38]): 80%
pre-emergence activity against ECHCG (ECHCG [21]; application rate 320 g/ha): 100%
pre-emergence activity against KCHSC (KCHSC): 90%
post-emergence activity against ECHCG (ECHCG [39]): 90%
post-emergence activity against ORYZA (ORYZA [24]): 0%
pre-emergence activity against POAAN (POAAN [27]): 100%
post-emergence activity against ZEAMX (ZEAMX [28]; application rate 80 g/ha): 0%
pre-emergence activity against SETVI (SETVI [29]): 100%
pre-emergence activity against VERPE (VERPE [30]; application rate 320 g/ha): 90%
